Paper PMC12567268 (Pharmaceuticals, 2025)
Like-named read-outs stand apart in the source and are kept apart here.

What was measured:
[1] = cited from earlier work
[2] = healthy human subjects, cited from earlier work
[3] = humans; cited from earlier work
[4] = rats; cited from earlier work
[5] = In vivo PK DDI study of TOF with or without RTV in rats (plasma LC-MS/MS, NCA); set-up: species or system Sprague–Dawley rats; conditions: for concentration at 12 h: oral, rat plasma, 12 h after TOF 10 mg/kg oral
Procedure: The rats were randomly divided into three groups (eight rats per group) after 1 week of acclimatization. Each rat was pretreated with RTV by oral gavage at different doses for four consecutive days (from Day 1 to Day 4) to ensure steady-state CYP3A inhibition, based on studies indicating rapid onset of inhibition. Group 1 (control group) received the vehicle (normal saline). Groups 2 and 3 served as test groups and received 10 and 20 mg/kg RTV once daily (QD), respectively. […] The collected samples were centrifuged at 10,000 rpm for 10 min at 4 °C to separate the plasma and stored at −80 °C until analysis.
Plasma samples were prepared by protein precipitation with acetonitrile containing domperidone as an internal standard (100 ng/mL). After vortex mixing and centrifugation at 15,000× g for 10 min at 4 °C, the supernatant was analyzed by LC-MS/MS with an injection volume of 5 μL. Chromatographic separation was achieved on a C18 reversed-phase column with a mobile phase of 0.1% formic acid in water and acetonitrile at a flow rate of 0.4 mL/min. Mass spectrometry was performed in positive ion mode with an electrospray ionization probe. […] Detailed instrument settings, sample preparation, calibration, and validation data are provided in Supplementary Material (Tables S1 and S2; Figure S1).

[6] = cited from earlier work; remark: listed apart in the source
CYP3A4 = conditions: in vitro study; cited from earlier work
[7] = healthy subjects, co-administration of RTV 400 mg twice daily; cited from earlier work
[8] = Sprague-Dawley, rat, plasma, po, 10 mg/kg, rats, TOF 10 mg/kg oral, Control (TOF only, vehicle), median [interquartile range]
[9] = rats, TOF 10 mg/kg oral, Control (TOF only, vehicle), median [interquartile range]
[10] = rats, TOF 10 mg/kg oral, RTV 10 mg/kg, median [interquartile range]

Compound: C[C@@H]1CCN(C(=O)CC#N)C[C@@H]1N(C)c1ncnc2[nH]ccc12 [TOF, Tofacitinib]
- Increase in AUC of TOF ([1]; rats pretreated with fluconazole (inhibitor of CYP2C11)): 39%
- Increase in AUC of TOF ([1]; rats pretreated with ketoconazole (inhibitor of CYP3A1/2)): 46%
- Increase in AUC of TOF ([1]; rats, with voriconazole (inhibits CYP3A1/2 and CYP2C11)): 166%
- Increase in AUC of TOF ([2]; co-administration of fluconazole): 79%
- Increase in AUC of TOF ([2]; co-administration of ketoconazole): 103%
- Hepatic clearance as share of total clearance [3]: 70%
- Renal clearance as share of total clearance [3]: 30%
- Bioavailability (BA) [4]: 29.1%
- concentration at 12 h ([5]; Sprague-Dawley, rat, plasma, RTV 10 mg/kg, read-out: Lowest plasma concentration at 12 h): 1.5 ng/mL
- concentration at 12 h ([5]; Sprague-Dawley, rat, plasma, RTV 10 mg/kg, read-out: Mean plasma concentration at 12 h): 21.9 ng/mL
- concentration at 12 h ([5]; Sprague-Dawley, rat, plasma, RTV 20 mg/kg, read-out: Lowest plasma concentration at 12 h): 2.6 ng/mL
- concentration at 12 h ([5]; Sprague-Dawley, rat, plasma, RTV 20 mg/kg, read-out: Mean plasma concentration at 12 h): 12.1 ng/mL
- AUC(0-inf) [5, 8]: 2720 ng·h/mL
- half-life [5, 8]: 1.21 h
- half-life ([5]; Sprague-Dawley, rat, plasma, po, 10 mg/kg, rats, TOF 10 mg/kg oral, RTV 10 mg/kg, median [interquartile range]): 1 h
- Cmax ([5]; Sprague-Dawley, rat, plasma, po, 10 mg/kg, rats, TOF 10 mg/kg oral, RTV 10 mg/kg, median [interquartile range], read-out: Cmax): 2250 ng/mL
- AUC(0-inf) ([5]; Sprague-Dawley, rat, plasma, po, 10 mg/kg, rats, TOF 10 mg/kg oral, RTV 20 mg/kg pretreatment and coadministration, median [interquartile range]): 16000 ng·h/mL
- half-life ([5]; Sprague-Dawley, rat, plasma, po, 10 mg/kg, rats, TOF 10 mg/kg oral, RTV 20 mg/kg, median [interquartile range]): 0.87 h
- Cmax ([5]; Sprague-Dawley, rat, plasma, po, 10 mg/kg, rats, TOF 10 mg/kg oral, RTV 20 mg/kg, median [interquartile range], read-out: Cmax): 3900 ng/mL
- Tmax ([5]; Sprague-Dawley, rat, plasma, po, 10 mg/kg, read-out: Tmax): 1 h
- CL [5, 9]: 3.57 [2.65–4.49] L/h/kg
- Cmax [5, 9]: 1362 [1263–1410] ng/mL
- Tmax [5, 9]: 0.25 [0.25–0.5] h
- CL [5, 10]: 1.65 [1.19–2.11] L/h/kg
- Tmax [5, 10]: 0.5 [0.44–1.0] h
- CL ([5]; rats, TOF 10 mg/kg oral, RTV 20 mg/kg, median [interquartile range]): 0.66 [0.60- 0.73] L/h/kg
- Change of half-life (t1/2) with RTV ([5]; rats, TOF 10 mg/kg oral, RTV 10 and 20 mg/kg vs Control, p = 0.08): remained unchanged

Compound: C=CC[C@@H]1/C=C(\C)C[C@H](C)C[C@H](OC)[C@H]2O[C@@](O)(C(=O)C(=O)N3CCCC[C@H]3C(=O)O[C@H](/C(C)=C/[C@@H]3CC[C@@H](O)[C@H](OC)C3)[C@H](C)[C@@H](O)CC1=O)[C@H](C)C[C@@H]2OC [Tacrolimus]
- Change in exposure on co-administration with RTV ([6]; patients undergoing long-term tacrolimus treatment): increase to toxic levels within 3 days

Compound: CC(=O)N1CCN(c2ccc(OCC3COC(Cn4ccnc4)(c4ccc(Cl)cc4Cl)O3)cc2)CC1 (stereo not shown) [ketoconazole]
- Inhibition of the overall metabolism of TOF (CYP3A4): over 70%

Compound: COc1ccc2c3c1O[C@H]1C(=O)CC[C@@]4(O)[C@@H](C2)N(C)CC[C@]314 [oxycodone]
- Change in exposure in the presence of RTV ([6]; in the presence of RTV): tripled

Compound: C[C@@H](c1ncncc1F)[C@](O)(Cn1cncn1)c1ccc(F)cc1F [voriconazole]
- Decrease in steady-state AUC [7]: 82%
